Key:
[1] = Inhibition of human Flag-tagged PI4K3alpha expressed in insect cells preincubated with enzyme followed by PS:PI substrate and ATP addition measured after 60 mins by HTRF Transcreener ADP assay
[2] = system: Hepatitis C virus; assay: Antiviral activity against HCV genotype 1b Con1 infected in human Huh5-2 cells co-expressing subgenomic HCV replicon NS3 assessed as reduction in viral replication after 2 days by luciferase reporter gene assay; assay type: functional, cell-based, Hepacivirus hominis; conditions: genotype 1b Con1, Huh-5-2, 48 h
[3] = Inhibition of human Flag-tagged PI4K3beta expressed in insect cells preincubated with enzyme followed by PS:PI substrate and ATP addition measured after 60 mins by HTRF Transcreener ADP assay
[4] = organism: Homo sapiens; assay: Selectivity ratio of IC50 for human Flag-tagged PI4K3beta expressed in insect cells to IC50 for human Flag-tagged PI4K3alpha expressed in insect cells
[5] = Inhibition of human Flag-tagged PI4K3alpha expressed in insect cells preincubated with enzyme followed by PS:PI substrate and ATP addition measured after 60 mins by ADP-Glo kinase assay
[6] = Inhibition of human Flag-tagged PI4K3beta expressed in insect cells preincubated with enzyme followed by PS:PI substrate and ATP addition measured after 60 mins by ADP-Glo kinase assay
[7] = Metabolic stability in rat liver microsomes assessed as compound remaining at 5 uM measured up to 60 mins; assay type: ADME; conditions: read-out: Stability
[8] = Oral bioavailability in CD(Sprague-Dawley) rat at 1 mg/kg administered as single dose measured up to 25 hrs; assay type: ADME, organism-based; conditions: in vivo
[9] = MRT in CD(Sprague-Dawley) rat at 1 mg/kg, po administered as single dose; assay type: ADME, organism-based; conditions: in vivo
[10] = Volume of distribution at steady state in CD(Sprague-Dawley) rat at 0.3 mg/kg, iv administered as single dose measured up to 25 hrs; assay type: ADME, organism-based; conditions: in vivo, read-out: Vdss
[11] = Metabolic stability in human liver microsomes assessed as compound remaining at 5 uM measured up to 60 mins; assay type: ADME; conditions: read-out: Stability
[12] = Terminal half life in CD(Sprague-Dawley) rat at 0.3 mg/kg, iv administered as single dose; assay type: ADME, organism-based; conditions: in vivo, read-out: beta t1/2 (converted)
[13] = system: Hepatitis C virus; assay: Antiviral activity against HCV genotype […] Con1 infected in human Huh5-2 cells co-expressing subgenomic HCV replicon NS3 assessed as reduction in viral replication after 2 days by luciferase reporter gene assay; assay type: functional, cell-based, Hepacivirus hominis, genotype 1b Con1; conditions: Huh-5-2, 48 h
[14] = AUC (0 to infinity) in CD(Sprague-Dawley) rat at 1 mg/kg, po administered as single dose measured up to 25 hrs; assay type: ADME, organism-based; parameters: dose 1 mg/kg, route oral, time infinity; conditions: in vivo
[15] = target: Phosphatidylinositol 4,5-bisphosphate 3-kinase catalytic subunit alpha isoform (Homo sapiens, UniProt P42336); assay: Inhibition of PI3Kalpha (unknown origin) preincubated prior addition of PIP2 as substrate and ATP measured after 30 mins by HTRF assay
[16] = target: Phosphatidylinositol 4,5-bisphosphate 3-kinase catalytic subunit beta isoform (Homo sapiens, UniProt P42338); assay: Inhibition of PI3Kbeta (unknown origin) preincubated prior addition of PIP2 as substrate and ATP measured after 30 mins by HTRF assay
[17] = Total clearance in CD(Sprague-Dawley) rat at 0.3 mg/kg, iv administered as single dose measured up to 25 hrs; assay type: ADME, organism-based; conditions: in vivo

Chain of Phosphatidylinositol 4,5-bisphosphate 3-kinase catalytic subunit beta isoform (P42338 whole entry, canonical isoform): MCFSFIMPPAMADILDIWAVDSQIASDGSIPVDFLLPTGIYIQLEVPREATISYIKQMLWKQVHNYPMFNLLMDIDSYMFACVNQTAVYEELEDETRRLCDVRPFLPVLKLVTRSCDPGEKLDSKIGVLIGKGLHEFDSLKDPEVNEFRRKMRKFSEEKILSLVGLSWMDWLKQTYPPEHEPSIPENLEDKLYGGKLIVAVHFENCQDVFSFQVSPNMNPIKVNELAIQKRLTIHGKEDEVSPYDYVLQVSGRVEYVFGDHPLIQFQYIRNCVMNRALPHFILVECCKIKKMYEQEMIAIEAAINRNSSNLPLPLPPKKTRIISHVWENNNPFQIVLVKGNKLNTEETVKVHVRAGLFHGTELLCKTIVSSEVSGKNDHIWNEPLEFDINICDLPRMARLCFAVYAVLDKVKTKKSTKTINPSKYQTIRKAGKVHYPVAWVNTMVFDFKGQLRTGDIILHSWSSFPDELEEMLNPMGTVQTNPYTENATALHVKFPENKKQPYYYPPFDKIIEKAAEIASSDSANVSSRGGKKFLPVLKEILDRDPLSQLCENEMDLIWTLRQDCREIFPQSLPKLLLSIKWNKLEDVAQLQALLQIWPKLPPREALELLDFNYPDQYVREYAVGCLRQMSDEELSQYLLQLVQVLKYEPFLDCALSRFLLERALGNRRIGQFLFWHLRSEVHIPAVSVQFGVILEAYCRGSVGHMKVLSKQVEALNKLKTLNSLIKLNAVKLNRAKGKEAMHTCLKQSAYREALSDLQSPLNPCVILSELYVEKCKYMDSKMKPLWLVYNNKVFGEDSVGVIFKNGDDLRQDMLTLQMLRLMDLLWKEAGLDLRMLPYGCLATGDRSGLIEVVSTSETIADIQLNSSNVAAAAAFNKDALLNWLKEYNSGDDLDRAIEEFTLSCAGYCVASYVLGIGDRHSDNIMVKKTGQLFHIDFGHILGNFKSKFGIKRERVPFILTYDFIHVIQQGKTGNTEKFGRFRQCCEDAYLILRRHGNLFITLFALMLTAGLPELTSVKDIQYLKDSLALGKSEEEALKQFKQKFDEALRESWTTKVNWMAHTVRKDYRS
Chain of Phosphatidylinositol 4,5-bisphosphate 3-kinase catalytic subunit alpha isoform (P42336 whole entry, canonical isoform): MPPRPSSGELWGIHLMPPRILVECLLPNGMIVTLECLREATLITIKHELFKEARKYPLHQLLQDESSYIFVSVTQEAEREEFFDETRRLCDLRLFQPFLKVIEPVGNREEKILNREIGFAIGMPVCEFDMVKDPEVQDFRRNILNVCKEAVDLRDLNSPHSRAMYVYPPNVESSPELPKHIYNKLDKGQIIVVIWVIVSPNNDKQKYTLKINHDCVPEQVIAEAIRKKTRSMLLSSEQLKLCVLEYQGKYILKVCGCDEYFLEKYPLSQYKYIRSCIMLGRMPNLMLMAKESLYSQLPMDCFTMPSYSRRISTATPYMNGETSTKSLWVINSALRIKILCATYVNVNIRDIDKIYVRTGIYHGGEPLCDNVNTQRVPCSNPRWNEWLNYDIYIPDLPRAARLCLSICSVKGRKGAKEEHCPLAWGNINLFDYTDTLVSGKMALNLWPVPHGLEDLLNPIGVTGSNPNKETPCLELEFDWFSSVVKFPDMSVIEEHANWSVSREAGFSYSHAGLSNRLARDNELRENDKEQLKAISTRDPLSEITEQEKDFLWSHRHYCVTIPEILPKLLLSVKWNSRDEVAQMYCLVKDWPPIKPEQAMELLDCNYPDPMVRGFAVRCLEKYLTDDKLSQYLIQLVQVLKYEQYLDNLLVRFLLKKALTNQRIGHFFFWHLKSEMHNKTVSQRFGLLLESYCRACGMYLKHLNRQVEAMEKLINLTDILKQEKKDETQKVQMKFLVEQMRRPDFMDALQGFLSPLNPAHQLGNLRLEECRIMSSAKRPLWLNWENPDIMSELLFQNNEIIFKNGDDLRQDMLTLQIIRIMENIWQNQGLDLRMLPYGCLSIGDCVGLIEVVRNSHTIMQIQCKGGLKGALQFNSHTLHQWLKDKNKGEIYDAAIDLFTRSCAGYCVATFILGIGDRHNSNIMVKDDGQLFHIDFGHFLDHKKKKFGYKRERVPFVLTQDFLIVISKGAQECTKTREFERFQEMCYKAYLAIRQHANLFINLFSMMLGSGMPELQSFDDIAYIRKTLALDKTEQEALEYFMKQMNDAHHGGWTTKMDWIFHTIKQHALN

Compound | IC50 [1] | EC50 [2] | IC50 [3] | Ratio IC50 [4] | also measured
COCc1ncc(-c2ccn3nnc(-c4ccccc4)c3c2)cc1NS(=O)(=O)c1ccc(F)cc1F | 93 nM | 780 nM | > 10000 nM | > 110 | –
COCc1ncc(-c2ccc3ncn(-c4ccccc4)c3c2)cc1NS(=O)(=O)c1ccc(F)cc1F | 13 nM | 880 nM | 410 nM | 32 | –
COCCn1cnc2ccc(-c3cnc(COC)c(NS(=O)(=O)c4ccc(F)cc4F)c3)cc2c1=O | 1 nM | 13 nM | 130 nM | 130 | –
COCc1ncc(-c2ccc3ncn(-c4ccccc4)c(=O)c3c2)cc1NS(=O)(=O)c1ccc(F)cc1F | – | 20 nM | – | 1200 | IC50 [5]: 4.1 nM; IC50 [6]: 4900 nM
COCCn1cnc2ccc(-c3cnc(COC4CC4)c(NS(=O)(=O)c4ccc(F)cc4F)c3)cc2c1=O | 0.31 nM | 6.8 nM | 220 nM | 710 | remaining at 1 h, 5 µM [7]: 91%; bioavailability [8]: 91%; MRT [9]: 5.5 h; Vd [10]: 0.2 L/kg; remaining at 1 h, 5 µM [11]: 104%; half-life [12]: 3.3 h; EC50 [13]: 10 nM; AUC(0-inf) [14]: 42 µM·h; IC50 [15]: 240 nM; IC50 [16]: 1400 nM; clearance [17]: 0.667 mL/min/kg
COCc1ncc(-c2c3ccc(-c4ccccc4)cc3nn2C)cc1NS(=O)(=O)c1ccc(F)cc1F | 260 nM | 700 nM | 18000 nM | 96 | –
COCc1ncc(-c2ccc3ncn(CCO)c(=O)c3c2)cc1NS(=O)(=O)c1ccc(F)cc1F | 2.5 nM | 81 nM | 660 nM | 260 | –
COc1ncc(-c2ccc3ncn(-c4ccccc4)c(=O)c3c2)cc1CS(=O)(=O)c1ccc(F)cc1F | – | > 30000 nM | – | > 30 | IC50 [5]: > 1000 nM; IC50 [6]: > 30000 nM
COCc1ncc(-c2c3ccc(C4=CCOCC4)cc3nn2C)cc1NS(=O)(=O)c1ccc(F)cc1F | 16 nM | 78 nM | 920 nM | 58 | –
COc1ncc(-c2ccc3ncn(-c4ccccc4)c(=O)c3c2)cc1S(=O)(=O)Nc1ccc(F)cc1F | – | 99 nM | – | > 160 | IC50 [5]: 190 nM; IC50 [6]: > 30000 nM
COCc1ncc(-c2ccc3ncc(-c4ccccc4)c(=O)n3c2)cc1NS(=O)(=O)c1ccc(F)cc1F | 8 nM | 68 nM | 8200 nM | 1030 | –
COCc1ncc(-c2c3ccc(C4CCOCC4)cc3nn2C)cc1NS(=O)(=O)c1ccc(F)cc1F | 5.7 nM | 31 nM | 300 nM | 53 | –
COC(C)c1ncc(-c2ccc3ncn(-c4ccccc4)c(=O)c3c2)cc1NS(=O)(=O)c1ccc(F)cc1F (racemic) | – | 400 nM | – | > 3000 | IC50 [5]: 100 nM; IC50 [6]: > 30000 nM
COCc1ncc(-c2ccc3nnn(-c4ccccc4)c3c2)cc1NS(=O)(=O)c1ccc(F)cc1F | 50 nM | 1000 nM | 3700 nM | 74 | –
COCc1ncc(-c2ccc3nn(C)c(C4=CCOCC4)c3c2)cc1NS(=O)(=O)c1ccc(F)cc1F | 3.1 nM | 50 nM | 98 nM | 32 | –
COc1ncc(-c2ccc3ncn(-c4ccccc4)c(=O)c3c2)cc1NS(=O)(=O)c1ccc(F)cc1F | – | – | – | 56 | IC50 [5]: 14 nM; IC50 [6]: 780 nM
COCc1ncc(-c2ccc3ncn(CCS(C)(=O)=O)c(=O)c3c2)cc1NS(=O)(=O)c1ccc(F)cc1F | 1.6 nM | 88 nM | 160 nM | 100 | –
COCc1ncc(-c2ccc3nn(C)c(C4CCOCC4)c3c2)cc1NS(=O)(=O)c1ccc(F)cc1F | 2 nM | 29 nM | 39 nM | 20 | –
CCCn1cnc2ccc(-c3cnc(COC)c(NS(=O)(=O)c4ccc(F)cc4F)c3)cc2c1=O | 1.9 nM | 10 nM | 230 nM | 120 | –
COCc1ncc(-c2ccc3ncc(=O)n(-c4ccccc4)c3c2)cc1NS(=O)(=O)c1ccc(F)cc1F | 2.2 nM | 41 nM | 1400 nM | 640 | –
COCc1ncc(-c2ccc3nn(C)c(-c4ccccc4)c3c2)cc1NS(=O)(=O)c1ccc(F)cc1F | 9.1 nM | 610 nM | 200 nM | 22 | –
